Test results as given in BindingDB's records for doi:10.1016/S1074-5521(01)00079-5 (State University of New York, 2001).

What follows are compounds tested against HIV-1 protease (Human immunodeficiency virus, UniProt O90785) (assay: Enzyme Inhibition Assay).
HIV-1 protease, sequence (O90785 whole entry): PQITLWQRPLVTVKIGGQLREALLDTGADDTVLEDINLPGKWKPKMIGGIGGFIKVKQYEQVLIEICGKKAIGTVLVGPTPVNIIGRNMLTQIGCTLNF

| Structure (SMILES) | Ki |
| --- | --- |
| O=C(NCc1ccccc1)[C@H](Cc1ccccc1)CC(O)C[C@@H](Cc1ccccc1)C(=O)NCc1ccccc1 [Carbinol, 18a] | 3.2 µM |
| O=C(NC1c2ccccc2CC1O)[C@H](Cc1ccccc1)CC(O)C[C@@H](Cc1ccccc1)C(=O)NC1c2ccccc2CC1O (stereo partly drawn) [Carbinol, 18b] | 0.0038 µM |
| O=C(NCc1ccccc1)[C@H](Cc1ccccc1)C[Si](O)(O)C[C@@H](Cc1ccccc1)C(=O)NCc1ccccc1 [Silanediol, 17a] | 3.2 µM |
